# Data as given in PubChem BioAssay (NCI).
# Several values for one entry are separate records, joined by “and”; a condition that tells them apart may be missing. Equal entries are not always repeated.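 Tested at 5 concentrations; 48 h exposure; 96-well plates; endpoints linearly interpolated, else capped at highest concentration. Abbreviation: GI50, concentration required for 50% inhibition of growth. At the TGI there is no net growth.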
# Tested on: HCT-116 colon
# Experiment: inhibition of tumour cell growth, NCI panel, 48 h
Structure (SMILES),GI50 [µM],TGI
C=C1CC[C@@H]2[C@](C)(COC(C)=O)[C@H](OC(C)=O)CC[C@@]2(C)[C@@H]1CC(Nc1ccc(S(=O)(=O)Nc2ncccn2)cc1)C1=CCOC1=O (some centres not stated),0.879,2.49 µM
COc1cc2c(c(OC)c1OC)-c1c(cc3c(c1OC)OCO3)C1OC2C(C)C1C (configuration not stated) (tested in a mixture with another compound),,> 100 µM
CCc1oc2ccccc2c1C(=O)c1cc(I)c(O)c(I)c1,2.91,12 µM
CON(C)C(=O)N1N=C(c2cc(F)ccc2F)SC1(CCCN)c1ccccc1 (configuration not stated),< 0.01,16.1 µM and 15.2 µM
O=C1/C(=C/c2ccc(O)cc2)CSc2ccc(Cl)cc21,7.08,> 100 µM

# Tested on: SK-MEL-28 melanoma
# Experiment: inhibition of tumour cell growth, NCI panel, 48 h
Structure (SMILES),GI50,TGI
COc1ccc(-n2cc(-c3cc(OC)c(OC)c(OC)c3)[nH]c2=O)cc1Cl,> 100 µM,> 100 µM
C=C(C)C1CCC2(C(=O)O)CCC3(C)C(CCC4C5(C)CCC(OC(=O)NCc6ccccc6)C(C)(C)C5CCC43C)C12 (configuration not stated),1.08 µM,> 100 µM
Cc1ccc(-c2cc(=O)c3cc(C)c(C)c(C(=O)O)c3o2)cc1C,,> 100 µM
O=C(/C=C/c1c(O)ccc2ccccc12)c1ccccc1,,> 100 µM
Cc1nc2ccccc2c(=O)n1-c1ccccc1F,,> 100 µM
Clc1ccc(-c2c(C3=NCCCN3)nnn2-c2ccc(Cl)cc2)cc1,,31.6 µM
Cc1ccc(C(=O)Nc2ccc(CN3CCN(C)CC3)c(C(F)(F)F)c2)cc1C#Cc1cnc(N)c2ccccc12,0.479 µM,1.15 µM
C=C1CC[C@@H]2[C@](C)(COC(C)=O)[C@H](OC(C)=O)CC[C@@]2(C)[C@@H]1CC(Nc1ccc(S(=O)(=O)Nc2ncccn2)cc1)C1=CCOC1=O (some centres not stated),1.69 µM,3.24 µM
COc1cc2c(c(OC)c1OC)-c1c(cc3c(c1OC)OCO3)C1OC2C(C)C1C (configuration not stated) (tested in a mixture with another compound),,> 100 µM
CCc1oc2ccccc2c1C(=O)c1cc(I)c(O)c(I)c1,8.45 µM,21.6 µM
CON(C)C(=O)N1N=C(c2cc(F)ccc2F)SC1(CCCN)c1ccccc1 (configuration not stated),10.6 µM and 2.97 µM,23.8 µM and 23.1 µM
O=C1/C(=C/c2ccc(O)cc2)CSc2ccc(Cl)cc21,4.04 µM,15.8 µM

# Tested on: M14 melanoma
# Experiment: inhibition of tumour cell growth, NCI panel, 48 h
Structure (SMILES),GI50 [µM],TGI
COc1ccc(-n2cc(-c3cc(OC)c(OC)c(OC)c3)[nH]c2=O)cc1Cl,> 100,> 100 µM
C=C(C)C1CCC2(C(=O)O)CCC3(C)C(CCC4C5(C)CCC(OC(=O)NCc6ccccc6)C(C)(C)C5CCC43C)C12 (configuration not stated),5.98,> 100 µM
Cc1ccc(-c2cc(=O)c3cc(C)c(C)c(C(=O)O)c3o2)cc1C,,> 100 µM
O=C(/C=C/c1c(O)ccc2ccccc12)c1ccccc1,,> 100 µM
Cc1nc2ccccc2c(=O)n1-c1ccccc1F,,> 100 µM
Clc1ccc(-c2c(C3=NCCCN3)nnn2-c2ccc(Cl)cc2)cc1,,31.3 µM
Cc1ccc(C(=O)Nc2ccc(CN3CCN(C)CC3)c(C(F)(F)F)c2)cc1C#Cc1cnc(N)c2ccccc12,0.134,0.701 µM
C=C1CC[C@@H]2[C@](C)(COC(C)=O)[C@H](OC(C)=O)CC[C@@]2(C)[C@@H]1CC(Nc1ccc(S(=O)(=O)Nc2ncccn2)cc1)C1=CCOC1=O (some centres not stated),1.44,3.98 µM
COc1cc2c(c(OC)c1OC)-c1c(cc3c(c1OC)OCO3)C1OC2C(C)C1C (configuration not stated) (tested in a mixture with another compound),,> 100 µM
CCc1oc2ccccc2c1C(=O)c1cc(I)c(O)c(I)c1,1.24,5.3 µM
CON(C)C(=O)N1N=C(c2cc(F)ccc2F)SC1(CCCN)c1ccccc1 (configuration not stated),< 0.01,11.2 µM and 4.38 µM
O=C1/C(=C/c2ccc(O)cc2)CSc2ccc(Cl)cc21,10,62.2 µM
